Measured values taken from patent publication US20170107212A1, “NOVEL COMPOUNDS” (Bayer Pharma Aktiengesellschaft, priority 2014, published 2017).
Structures can show the parent of a compound that is named as a salt.

Assays:
[1] = tested on: constitutive active colorectal cancer cell (CRC) Wnt pathway, HCT116 TOPFlash; test: Cellular reporter assay, HCT116 Super TopFlash (constitutive active Wnt pathway), luciferase expression; type: cell-based; settings: Homo sapiens, HCT-116, 36 h, HCT116 Super TopFlash reporter cells, 36 hours incubation, dilution series 50 μM to 15 nM
In short: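 HCT116 cells stably carrying Super TopFlash (β-catenin ΔS45, constitutive Wnt) run in parallel with FOP control line; compounds 50 μM to 15 nM (3.16-fold) in CAFTY buffer pH 7.4 with 2 mM Ca2+, 0.01% BSA, 36 h at 37 °C. Luciferase luminescence read as Wnt activity.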

[2] = tested on: HCT116 FOPFlash; test: Control reporter assay, HCT116 FOP control vector (non-functional TCF elements), luciferase expression; type: cell-based; settings: Homo sapiens, HCT-116, 36 h, HCT116 FOP control reporter cells, 36 hours incubation, dilution series 50 μM to 15 nM
In short: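 Stable HCT116 cells carrying FOP vector (randomized non-functional TCF sites) plus pcDNA3, run in parallel with TOP line; compounds 50 μM to 15 nM (3.16-fold steps) added in CAFTY buffer pH 7.4 with 2 mM Ca2+, 0.01% BSA. Incubated 36 h at 37 °C, 5% CO2; luciferase luminescence read.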

Structure (SMILES) | IC50 [1] [µM] | IC50 [2] [µM]
O=C(CN1CCOCC1)Nc1cc(C(=O)Nc2nnc(-c3ccncc3)s2)ccc1OC(F)(F)F [Example 81, 3-[(morpholin-4-ylacetyl)amino]-N-[5-(pyridin-4-yl)-1,3,4-thiadiazol-2-yl]-4-(trifluoromethoxy)benzamide] | ≥ 50 | ≥ 50
O=C(CN1CCOCC1)Nc1cc(C(=O)Nc2nnc(-c3cccnc3)s2)ccc1OC(F)(F)F [Example 82, 3-[(morpholin-4-ylacetyl)amino]-N-[5-(pyridin-3-yl)-1,3,4-thiadiazol-2-yl]-4-(trifluoromethoxy)benzamide] | 21.2 | ≥ 50
CN1CCN(CC(=O)Nc2cc(C(=O)Nc3nnc(-c4ccncc4)s3)ccc2OC(F)(F)F)CC1 [Example 83, 3-{[(4-methylpiperazin-1-yl)acetyl]amino}-N-[5-(pyridin-4-yl)-1,3,4-thiadiazol-2-yl]-4-(trifluoromethoxy)benzamide] | 26.3 | ≥ 50
CN1CCN(CC(=O)Nc2cc(C(=O)Nc3nnc(-c4cccnc4)s3)ccc2Cl)CC1 [Example 84, 4-chloro-3-{[(4-methylpiperazin-1-yl)acetyl]amino}-N-[5-(pyridin-3-yl)-1,3,4-thiadiazol-2-yl]benzamide hydrochloride] | ≥ 50 | ≥ 50
O=C(Nc1nnc(-c2cccnc2)s1)c1ccc(Cl)c(NC(=O)C2(N3CCN(C4CC4)CC3)CC2)c1 [Example 85, 4-chloro-3-({[1-(4-cyclopropylpiperazin-1-yl)cyclopropyl]carbonyl}amino)-N-[5-(pyridin-3-yl)-1,3,4-thiadiazol-2-yl]benzamide] | 12.5 | ≥ 50
O=C(CN1CCN(C2CC2)CC1)Nc1cc(C(=O)Nc2nnc(-c3cccnc3)s2)ccc1Cl [Example 86, 4-chloro-3-{[(4-cyclopropylpiperazin-1-yl)acetyl]amino}-N-[5-(pyridin-3-yl)-1,3,4-thiadiazol-2-yl]benzamide] | 44 | ≥ 50
CN1CCN(CC(=O)Nc2cc(C(=O)Nc3nnc(-c4cncnc4)s3)ccc2OC(F)(F)F)CC1 [Example 87, 3-{[(4-methylpiperazin-1-yl)acetyl]amino}-N-[5-(pyrimidin-5-yl)-1,3,4-thiadiazol-2-yl)-4-(trifluoromethoxy)benzamide] | 18 | ≥ 50
O=C(CN1CCOCC1)Nc1cc(C(=O)Nc2nnc(-c3cnccn3)s2)ccc1OC(F)(F)F [Example 88, 3-[(morpholin-4-ylacetyl)amino]-N-[5-(pyrazin-2-yl)-1,3,4-thiadiazol-2-yl]-4-(trifluoromethoxy)benzamide] | ≥ 50 | ≥ 50
Cc1cccnc1-c1nnc(NC(=O)c2ccc(OC(F)(F)F)c(NC(=O)CN3CCOCC3)c2)s1 [Example 89, N-[5-(3-methylpyridin-2-yl)-1,3,4-thiadiazol-2-yl]-3-[(morpholin-4-ylacetyl)amino]-4-(trifluoromethoxy)benzamide] | 0.845 | ≥ 50
CN1CCN(CC(=O)Nc2cc(C(=O)Nc3nnc(-c4ccnc(N)c4)s3)ccc2OC(F)(F)F)CC1 [Example 90, N-[5-(2-aminopyridin-4-yl)-1,3,4-thiadiazol-2-yl]-3-{[(4-methylpiperazin-1-yl)acetyl]amino}-4-(trifluoromethoxy)benzamide] | 7.4 | 31
Cc1nccnc1-c1nnc(NC(=O)c2ccc(OC(F)(F)F)c(NC(=O)CN3CCOCC3)c2)s1 [Example 91, N-[5-(3-methylpyrazin-2-yl)-1,3,4-thiadiazol-2-yl]-3-[(morpholin-4-ylacetyl)amino]-4-(trifluoromethoxy)benzamide] | 35.6 | ≥ 50
Cc1csc(-c2nnc(NC(=O)c3ccc(OC(F)(F)F)c(NC(=O)CN4CCOCC4)c3)s2)n1 [Example 92, N-[5-(4-methyl-1,3-thiazol-2-yl)-1,3,4-thiadiazol-2-yl]-3-[(morpholin-4-ylacetyl)amino]-4-(trifluoromethoxy)benzamide] | 21.2 | ≥ 50
Cc1ccnc(-c2nnc(NC(=O)c3ccc(OC(F)(F)F)c(NC(=O)CN4CCOCC4)c3)s2)c1 [Example 93, N-[5-(4-methylpyridin-2-yl)-1,3,4-thiadiazol-2-yl]-3-[(morpholin-4-ylacetyl)amino]-4-(trifluoromethoxy)benzamide] | ≥ 50 | ≥ 50
Nc1ncc(-c2nnc(NC(=O)c3ccc(OC(F)(F)F)c(NC(=O)CN4CCOCC4)c3)s2)cn1 [Example 94, N-[5-(2-aminopyrimidin-5-yl)-1,3,4-thiadiazol-2-yl]-3-[(morpholin-4-ylacetyl)amino]-4-(trifluoromethoxy)benzamide] | 23.2 | ≥ 50
Cc1nc(-c2nnc(NC(=O)c3ccc(OC(F)(F)F)c(NC(=O)CN4CCOCC4)c3)s2)cs1 [Example 95, N-[5-(2-methyl-1,3-thiazol-4-yl)-1,3,4-thiadiazol-2-yl]-3-[(morpholin-4-ylacetyl)amino]-4-(trifluoromethoxy)benzamide] | 25.3 | ≥ 50
O=C(CN1CCOCC1)Nc1cc(C(=O)Nc2nnc(-c3ncccc3F)s2)ccc1OC(F)(F)F [Example 96, N-[5-(3-fluoropyridin-2-yl)-1,3,4-thiadiazol-2-yl]-3-[(morpholin-4-ylacetyl)amino]-4-(trifluoromethoxy}benzamide] | ≥ 50 | ≥ 50
CN1CCN(CC(=O)Nc2cc(C(=O)Nc3nnc(-c4cnccn4)s3)ccc2OC(F)(F)F)CC1 [Example 97, 3-{[(4-methylpiperazin-1-yl)acetyl]amino}-N-[5-(pyrazin-2-yl)-1,3,4-thiadiazol-2-yl]-4-(trifluoromethoxy)benzamide] | 7.05 | ≥ 50
Nc1cc(-c2nnc(NC(=O)c3ccc(OC(F)(F)F)c(NC(=O)CN4CCOCC4)c3)s2)ccn1 [Example 98, N-[5-(2-aminopyridin-4-yl)-1,3,4-thiadiazol-2-yl]-3-[(morpholin-4-ylacetyl)amino)-4-(trifluoromethoxy)benzamide] | ≥ 50 | ≥ 50
Cc1ncc(-c2nnc(NC(=O)c3ccc(OC(F)(F)F)c(NC(=O)CN4CCN(C)CC4)c3)s2)s1 [Example 99, 3-{[(4-methylpiperazin-1-yl)acetyl)amino}-N-[5-(2-methyl-1,3-thiazol-5-yl)-1,3,4-thiadiazol-2-yl]-4-(trifluoromethoxy)benzamide] | 8.55 | ≥ 50
Cc1ncc(-c2nnc(NC(=O)c3ccc(OC(F)(F)F)c(NC(=O)CN4CCOCC4)c3)s2)s1 [Example 100, N-[5-(2-methyl-1,3-thiazol-5-yl)-1,3,4-thiadiazol-2-yl]-3-[(morpholin-4-ylacetyl)amino]-4-(trifluoromethoxy)benzamide] | 41 | ≥ 50
O=C(CN1CCOCC1)Nc1cc(C(=O)Nc2nnc(-c3nccs3)s2)ccc1OC(F)(F)F [Example 101, 3-[(morpholin-4-ylacetyl)amino]-N-[5-(1,3-thiazol-2-yl)-1,3,4-thiadiazol-2-yl]-4-(trifluoromethoxy)benzamide] | ≥ 50 | ≥ 50
Cc1cncc(-c2nnc(NC(=O)c3ccc(OC(F)(F)F)c(NC(=O)CN4CCN(C)CC4)c3)s2)n1 [Example 102, 3-{[(4-methylpiperazin-1-yl)acetyl]amino}-N-[5-(6-methylpyrazin-2-yl)-1,3,4-thiadiazol-2-yl]-4-(trifluoromethoxy)benzamide] | 0.18 | ≥ 50
